Among the data in US20220054469A1, “FARNESOID X RECEPTOR AGONISTS AND USES THEREOF” (Metacrine, Inc., priority 2018, published 2022) are EC50 values, retold here.

The assay deals with T1, hFXR (Homo sapiens, UniProt Q96RI1).
T1 construct: expressed in transfected cells; host or cells: CV-1 cells
T1 sequence (Q96RI1 1-486): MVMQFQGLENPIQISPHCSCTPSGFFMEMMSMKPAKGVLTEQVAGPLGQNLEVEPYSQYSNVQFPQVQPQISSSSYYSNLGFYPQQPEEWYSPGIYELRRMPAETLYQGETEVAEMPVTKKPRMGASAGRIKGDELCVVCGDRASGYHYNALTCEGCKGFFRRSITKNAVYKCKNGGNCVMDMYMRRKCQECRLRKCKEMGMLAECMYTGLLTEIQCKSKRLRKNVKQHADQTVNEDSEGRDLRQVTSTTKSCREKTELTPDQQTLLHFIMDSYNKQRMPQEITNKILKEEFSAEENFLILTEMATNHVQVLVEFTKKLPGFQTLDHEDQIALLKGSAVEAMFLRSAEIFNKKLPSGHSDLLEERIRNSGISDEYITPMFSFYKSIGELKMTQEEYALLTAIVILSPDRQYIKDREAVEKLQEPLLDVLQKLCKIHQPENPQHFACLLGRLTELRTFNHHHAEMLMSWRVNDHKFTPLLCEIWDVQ
T1 sequence (P19793 1-462 partner): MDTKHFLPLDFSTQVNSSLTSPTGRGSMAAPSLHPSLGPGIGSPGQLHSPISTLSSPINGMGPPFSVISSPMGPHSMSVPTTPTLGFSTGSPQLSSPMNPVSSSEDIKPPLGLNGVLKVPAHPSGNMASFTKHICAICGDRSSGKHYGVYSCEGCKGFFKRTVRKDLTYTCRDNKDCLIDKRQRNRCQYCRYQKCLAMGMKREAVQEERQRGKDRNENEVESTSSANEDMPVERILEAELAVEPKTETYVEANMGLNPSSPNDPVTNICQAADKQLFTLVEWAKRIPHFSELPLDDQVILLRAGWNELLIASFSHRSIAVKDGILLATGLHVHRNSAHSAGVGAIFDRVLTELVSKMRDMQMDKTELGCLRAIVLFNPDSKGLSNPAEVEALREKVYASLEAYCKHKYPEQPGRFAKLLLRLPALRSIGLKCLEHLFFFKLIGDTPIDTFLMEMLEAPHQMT
In words: In Vitro FXR Assay (TK). The following applies: CV-1 cells transfected with hFXR, hRXR, TK-ECRE-luc and pCMX-YFP; incubated with compound for 18 hrs; luminescence. Format: cell-based. The method, then:
Example B-1: In Vitro FXR Assay (TK)
CV-1 cells were seeded at a density of 2,000,000 cells in a T175 flask with DMEM+10% charcoal double-stripped FBS and incubated at 37° C. in 5% CO2 for 18 h (O/N).
After 18 h of incubation, the medium in the T175 flask was changed with fresh DMEM+10% charcoal super-stripped serum. In a polypropylene tube, 2500 μL OptiMEM (Life Technologies, Cat #31985-062) was combined with expression plasmids for hFXR, hRXR, TK-ECRE-luc and pCMX-YFP. The tube was then briefly vortexed and incubated at room temperature for 5 minutes. Transfection reagent (X-tremeGENE HP from Roche, Cat #06 366 236 001) was added to the OptiMEM/plasmid mixture vortexed and incubated at room temperature for 20 minutes. Following incubation, the transfection reagent/DNA mixture complex was added to cells in the T175 flask and the cells were incubated at 37° C. in 5% CO2 for 18 h (O/N).
Compounds were serially diluted in DMSO and added to transfected CV-1 cells. The cells were then incubated for 18 hrs. The next day cells were lysed and examined for luminescence.
`COc1ccc(C23CCC(CN(c4cc(-n5cnc(C6CC6)n5)ccn4)C(=O)[C@H]4CC[C@H](CC(=O)O)CC4)(CC2)CC3)cc1C` [Compound 4.27, trans-2-(4-((4-(3-Cyclopropyl-1H-1,2,4-triazol-1-yl)pyridin-2-yl)((4-(4-methoxy-3-methylphenyl)bicyclo[2.2.2]octan-1-yl)methyl)carbamoyl)cyclohexyl)acetic acid]: the half-maximal effective concentration (EC50) was no more than 50 nM.

Consider `COc1ccc(C23CCC(CN(c4cccc(-c5cnn(C(C)C)c5)c4)C(=O)[C@H]4CC[C@H](CC(=O)O)CC4)(CC2)CC3)cc1C` [Compound 3.02, trans-2-(4-((3-(1-Isopropyl-1H-pyrazol-4-yl)phenyl)((4-(4-methoxy-3-methylphenyl)bicyclo[2.2.2]octan-1-yl)methyl)carbamoyl)cyclohexyl)acetic acid], for which the 50% effective concentration (EC50) is no more than 50 nM.

For the molecule `COc1ccc(C23CCC(CN(c4cccc(-c5cnn(C(C)C)c5)c4)C(=O)[C@H]4CC[C@H](C(=O)O)CC4)(CC2)CC3)cc1C` [Compound 4.01, trans-4-((3-(1-Isopropyl-1H-pyrazol-4-yl)phenyl)((4-(4-methoxy-3-methylphenyl)bicyclo[2.2.2]octan-1-yl)methyl)carbamoyl)cyclohexanecarboxylic acid], the EC50 was no more than 50 nM.

For the molecule `COc1ccc([C@H]2CC[C@H](CN(c3cc(-c4cnc(C(C)C)s4)ccn3)C(=O)[C@H]3CC[C@H](CC(=O)O)CC3)CC2)cc1C` [Compound 2.12, 2-(trans-4-((4-(2-Isopropylthiazol-5-yl)pyridin-2-yl)((trans-4-(4-methoxy-3-methylphenyl)cyclohexyl)methyl)carbamoyl)cyclohexyl)acetic acid], the EC50 was no more than 50 nM.

As to `COc1ccc(C23CCC(CN(c4cc(-n5cnc(C(C)C)n5)ccn4)C(=O)[C@H]4CC[C@H](CC(=O)O)CC4)(CC2)CC3)cc1C` [Compound 4.26, trans-2-(4-((4-(3-Isopropyl-1H-1,2,4-triazol-1-yl)pyridin-2-yl)((4-(4-methoxy-3-methylphenyl)bicyclo[2.2.2]octan-1-yl)methyl)carbamoyl)cyclohexyl)acetic acid], the EC50 is 50 to 1000 nM.

Take `COc1ccc(C23CCC(CN(c4cc(-c5ccn(C(C)C)n5)ccn4)C(=O)[C@H]4CC[C@H](CC(=O)O)CC4)(CC2)CC3)cc1C` [Compound 4.23, trans-2-(4-((4-(1-Isopropyl-1H-pyrazol-3-yl)pyridin-2-yl)((4-(4-methoxy-3-methylphenyl)bicyclo[2.2.2]octan-1-yl)methyl)carbamoyl)cyclohexyl)acetic acid]: the concentration giving a half-maximal response (EC50) is no more than 50 nM.

In the case of `COc1ccc(C23CCC(CN(C(=O)[C@@H]4CCC[C@H](C(=O)O)C4)c4cc(-c5cnn(C(C)C)c5)ccn4)(CC2)CC3)cc1C` (relative stereo) [Compound 3.05, cis-3-((4-(1-Isopropyl-1H-pyrazol-4-yl)pyridin-2-yl)((4-(4-methoxy-3-methylphenyl)bicyclo[2.2.2]octan-1-yl)methyl)carbamoyl)cyclohexanecarboxylic acid], the EC50 fell in the range of 1000 to 10000 nM.

In the case of `COc1ccc(C23CCC(CN(c4cc(-c5cnn(C(C)C)c5)ccn4)C(=O)[C@H]4CC[C@H](C(=O)O)CC4)(CC2)CC3)cc1C` [Compound 4.02, trans-4-((4-(1-Isopropyl-1H-pyrazol-4-yl)pyridin-2-yl)((4-(4-methoxy-3-methylphenyl)bicyclo[2.2.2]octan-1-yl)methyl)carbamoyl)cyclohexanecarboxylic acid], the EC50 was no more than 50 nM.

`COc1ccc(C23CCC(CN(c4cc(-c5noc(C(C)C)n5)ccn4)C(=O)[C@H]4CC[C@H](CC(=O)O)CC4)(CC2)CC3)cc1C` [Compound 4.21, trans-2-(4-((4-(5-lsopropyl-1,2,4-oxadiazol-3-yl)pyridin-2-yl)((4-(4-methoxy-3-methylphenyl)bicyclo[2.2.2]octan-1-yl)methyl)carbamoyl)cyclohexyl)acetic acid]: the 50% effective concentration (EC50) was in the range of 50 to 1000 nM.

As for `COc1ccc(C23CCC(CN(c4cc(-c5nc(C(C)C)no5)ccn4)C(=O)[C@H]4CC[C@H](CC(=O)O)CC4)(CC2)CC3)cc1C` [Compound 4.20, trans-2-(4-((4-(3-Isopropyl-1,2,4-oxadiazol-5-yl)pyridin-2-yl)((4-(4-methoxy-3-methylphenyl)bicyclo[2.2.2]octan-1-yl)methyl)carbamoyl)cyclohexyl)acetic acid], the EC50 fell in the range of 50 to 1000 nM.

Turning to `COc1ccc(C23CCC(CN(c4cc(-n5cnc(C(C)C)c5)ccn4)C(=O)[C@H]4CC[C@H](CC(=O)O)CC4)(CC2)CC3)cc1C` [Compound 4.25, trans-2-(4-((4-(4-Isopropyl-1H-imidazol-1-yl)pyridin-2-yl)((4-(4-methoxy-3-methylphenyl)bicyclo[2.2.2]octan-1-yl)methyl)carbamoyl)cyclohexyl)acetic acid], the EC50 lay within 50 to 1000 nM.

As to `COc1c(C)cc(C23CCC(CN(c4cc(-c5cnn(C(C)C)c5)ncn4)C(=O)[C@H]4CC[C@H](CC(=O)O)CC4)(CC2)CC3)cc1C` [Compound 4.08, trans-2-(4-((6-(1-Isopropyl-1H-pyrazol-4-yl)pyrimidin-4-yl)((4-(4-methoxy-3,5-dimethylphenyl)bicyclo[2.2.2]octan-1-yl)methyl)carbamoyl)cyclohexyl)acetic acid], the concentration for a half-maximal effect (EC50) was in the range of 50 to 1000 nM.

Regarding `COc1ccc(C23CCC(CN(c4cncc(-c5cnn(C(C)C)c5)n4)C(=O)[C@H]4CC[C@H](CC(=O)O)CC4)(CC2)CC3)cc1C` (relative stereo) [Compound 4.10, trans-2-(4-((6-(1-Isopropyl-1H-pyrazol-4-yl)pyrazin-2-yl)((4-(4-methoxy-3-methylphenyl)bicyclo[2.2.2]octan-1-yl)methyl)carbamoyl)cyclohexyl)acetic acid], the EC50 fell in the range of 50 to 1000 nM.

In the case of `COc1ccc(C23CCC(CN(c4cc(-c5cnn(C(C)(C)C)c5)ccn4)C(=O)[C@H]4CC[C@H](CC(=O)O)CC4)(CC2)CC3)cc1C` [Compound 4.04, trans-2-(4-((4-(1-(tert-Butyl)-1H-pyrazol-4-yl)pyridin-2-yl)((4-(4-methoxy-3-methylphenyl)bicyclo[2.2.2]octan-1-yl)methyl)carbamoyl)cyclohexyl)acetic acid], the EC50 is no more than 50 nM.

Take `COc1ccc(C23CCC(CN(c4cc(-c5cnn(C(C)C)c5)ncn4)C(=O)[C@H]4CC[C@H](CC(=O)O)CC4)(CC2)CC3)cc1C` [Compound 3, trans-2-(4-((6-(1-Isopropyl-1H-pyrazol-4-yl)pyrimidin-4-yl)((4-(4-methoxy-3-methylphenyl)bicyclo[2.2.2]octan-1-yl)methyl)carbamoyl)cyclohexyl)acetic acid]: the EC50 fell in the range of 50 to 1000 nM.

With `COc1ncc(C23CCC(CN(c4cccc(-c5cnn(C(C)(C)C)c5)c4)C(=O)[C@H]4CC[C@H](CC(=O)O)CC4)(CC2)CC3)cc1C` [Compound 2.07, trans-2-(4-((3-(1-(tert-Butyl)-1H-pyrazol-4-yl)phenyl)((4-(6-methoxy-5-methylpyridin-3-yl)bicyclo[2.2.2]octan-1-yl)methyl)carbamoyl)cyclohexyl)acetic acid], the EC50 was no more than 50 nM.

Consider `CC(C)n1cc(-c2cccc(N(CC34CCC(c5ccc(N(C)C)nc5)(CC3)CC4)C(=O)[C@H]3CC[C@H](CC(=O)O)CC3)c2)cn1` [Compound 4.14, trans-2-(4-(((4-(6-(Dimethylamino)pyridin-3-yl)bicyclo[2.2.2]octan-1-yl)methyl)(3-(1-isopropyl-1H-pyrazol-4-yl)phenyl)carbamoyl)cyclohexyl)acetic acid], for which the EC50 was no more than 50 nM.

Regarding `COc1ncc(C23CCC(CN(c4cccc(-c5cnn(C(C)C)c5)c4)C(=O)[C@H]4CC[C@H](CC(=O)O)CC4)(CC2)CC3)cc1C` [Compound 4.11, trans-2-(4-((3-(1-Isopropyl-1H-pyrazol-4-yl)phenyl)((4-(6-methoxy-5-methylpyridin-3-yl)bicyclo[2.2.2]octan-1-yl)methyl)carbamoyl)cyclohexyl)acetic acid], the 50% effective concentration (EC50) was no more than 50 nM.

In general, EC50 refers to the midpoint of the concentration-response curve.
